Series [1] can be described thus: Pharmacokinetics of oral PA: serum concentrations by GC-MS. It counts as in vivo, C57BL/6 mice. The text has this: (§1) Nine-month-old oophorectomised (OVX) and SHAM-operated C57BL/6 mice (n=24 per group) were obtained from the Animal Resources Centre (Perth, Wash.). After 2 weeks of acclimation, mice were divided into four groups (Table 2) and received treatment in their drinking water for a total of 6 weeks. Mice treated with plain water were used as controls. Mice were housed in cages in a limited access room.
For absorption analysis of minerals in the duodenum, tissue was dissected and left to dry up in room temperature. 100 mg of tissue were dissolved in nitric acid and concentrations of nine minerals was quantified in the tissue homogenates using an Agilent 5973 mass selective detector via an auto-sampler Agilent Technologies 7683, and controlled using Agilent ChemStation software (Agilent, Santa Clara, Calif., USA). For pharmacokinetic analysis of PA, serum of Pa- and vehicle-treated animals was obtained by centrifugation. 1 μl of serum was injected into an Agilent 6890 gas chromato-graph, interfaced to an Agilent 5973 mass selective detector via an auto-sampler Agilent Technologies 7683, and controlled using Agilent ChemStation software (Agilent, Santa Clara, Calif., USA).

For a further series, the system named is Runx2 and OCN. In words: Western blot of Runx2 and OCN in bone marrow cells of PA-treated mice. In kind it is in vivo, C57BL/6 mice. How it is done:
Marrow cells were obtained from the left femur of PA- and vehicle-treated animals (n=6 per group) by flushing with Dulbecco's alpha modified medium (DMEM). Red blood cells in marrow cells were hemolyzed in 0.017 M tris-HCl, pH 7.5, buffer containing 0.8% ammonium chloride. Hemolyzed bone marrow suspensions were rinsed twice with phosphate buffered saline (PBS). Protein extracts were obtained after suspending the cells in 2 volumes of buffer containing 10 mM EDTA, 0.5 mM phenylmethylsulfonyl fluoride, and one Complete™ protease inhibitor mixture tablet (Boehringer Mannheim, Laval, Quebec, Canada). […] Protein content was determined with a protein assay kit (Bio-Rad. Mississauga, Ontario), and samples were then aliquoted and stored at −80° C. […] Antigen-antibody complexes were detected by chemiluminescence using a kit of reagents from ECL (Amersham, UK) and blots were exposed to high-performance chemiluminescence film (Amersham, UK). Films were scanned and the optical density of each specific band analysed using the ImageMaster program and expressed as OD/mm2/100 μg of total protein. Relative intensity of the samples was determined comparing the protein of interest in the treated mice using the values of vehicle-treated mice as controls (100%). […]
(In general: A western blot detects proteins with antibodies after separation by electrophoresis.)

Series [2] in a line: Therapeutic safety of oral PA: weight, water consumption, survival. In kind it is in vivo, C57BL/6 mice. The settings on record: for Weight: after 6 weeks; for Water left: initial volume 500 mL, weekly average. The protocol:
as §1
Water left in the bottle (initial volume of 500 mL) was also quantified every week. […] These volumes correspond with the drinking pattern previously reported in this mouse model. (iii) Effect of Oral PA on Mineral Absorption in OVX Mice

The test system of series [3] is bone marrow stromal cells (BMSC) from IDO-1 KO and WT mice. In words: Osteogenic differentiation of BMSC from IDO-1 KO and WT mice (alizarin red). In kind it is cell-based. To be noted: vs vehicle. The protocol: One side tibiae from 9-month-old IDO-1^−/− and IDO-1^+/+ mice (n=6 per group) were flushed using a 21-gauge needle attached to a 10 ml syringe filled with Dulbecco's modified Eagle's medium (DME) (GIBCO BRL, Gaithersburg, Md., USA). The bone marrow cells were filtered through a cell strainer with a 70-micron nylon mesh (BD Bioscience, Bedford, Mass., USA) and plated in 10 cm^2 tissue culture dishes. The cells were incubated in growth medium at 37° C. with 5% humidified CO2 and isolated by their adherence to tissue culture plastic. Medium was aspirated and replaced with fresh medium every 2 to 3 days to remove non-adherent cells. The adherent MSC were grown to confluency for about 7 days and defined as MSC at passage 0, harvested with 0.25% trypsin and 1 mM EDTA for 5 min at 37° C., diluted 1:3 in growth medium, plated and grown to confluency for further expansion. After 2nd and 3rd passages, MSC were used for subsequent experiments.
To induce differentiation, a total of 10^4 cells were diluted in osteogenic medium and plated in 24 dishes per group in the presence or absence of either quinolinic or picolinic acid. Media was aspirated and replaced with fresh osteogenic medium every 3 days. At 21 days, medium was removed and cultures were fixed in 10% v/v formol/saline solution for 5 min. Cultures were stained with Alizarin Red, which was then extracted and quantified at 570 nm.

For series [4], the system named is OVX C57BL/6 mice (osteoporosis model). In words: Quantitative μCT of femur and vertebrae in Sham and OVX mice. The settings on record: oral PA 6 weeks. In kind it is in vivo. How it is done: Nine-month-old oophorectomised (OVX) and SHAM-operated C57BL/6 mice (n=24 per group) were obtained from the Animal Resources Centre (Perth, Wash.). After 2 weeks of acclimation, mice were divided into four groups (Table 2) and received treatment in their drinking water for a total of 6 weeks. Mice treated with plain water were used as controls. Mice were housed in cages in a limited access room. Mice were administered a lethal dose of anaesthetic at the indicated times, exsanguinated, and imaged using a Faxitron MX20 equipped with an FPX-2 Imaging system (Dalsa Medoptics, Waterloo, Ontario, Canada). μ-CT was performed on the left femur and lumbar vertebrae after removal of soft tissues and overnight fixation in 4% paraformaldehyde. The distal metaphysis of the femur and the body of the vertebrae were scanned with a Skyscan 1072 micro-CT instrument (Skyscan, Antwerp, Belgium). Image acquisition was performed at 100 kV and 98 μA, with a 0.9° rotation between frames. The two-dimensional images were used to generate three-dimensional reconstructions to obtain quantitative data with the 3D Creator software supplied with the instrument. Nomenclature and abbreviations of 3D-μCT parameters follow the recommendations of the American Society of Bone and Mineral Research (see Bouxsein et al. (2010), “Guidelines for assessment of bone microstructure in rodents using micro-computed tomography”, J Bone Miner Res., 25: 1468-1486).

For the molecule `O=C(O)c1ccccn1` [PA, pyridine-2-carboxylic acid], in series [1] (higher dose vs 0.5 gm/Kg/d), the “serum concentrations of PA at higher dose” value is listed as “not followed by higher serum concentrations”. Further, the “serum concentrations of PA, OVX vs SHAM counterpart” value in series [1] (low dose of PA) was “lower serum concentrations”. For the same molecule, in series [1] (oral PA in drinking water, 6 weeks, Sham and OVX mice), the “serum concentrations of PA” value was “increased in the treated groups in a dose-dependent manner”. The “protein expression of OCN and Runx2 (immunoblot)” value in the series on Runx2 and OCN is given as “significant increase”. The Weight in series [2] (OVX, PA250 (250 mg/kg/d)) came to 26 ± 1.6 gm; in series [2] (OVX, PA500 (500 mg/kg/d)), 28 ± 0.4 gm; in series [2] (OVX, PA1000 (1 gm/kg/d)), 26 ± 1.3 gm; in series [2] (Sham, PA250 (250 mg/kg/d)), 27 ± 2.0 gm; in series [2] (Sham, PA500 (500 mg/kg/d)), 26 ± 2.4 gm; in series [2] (Sham, PA1000 (1 gm/kg/d)) it was 26 ± 1.3 gm. In addition, the Water left worked out at 195 ± 28 ml/week in series [2] (OVX, PA250); 195 ± 35 ml/week in series [2] (OVX, PA500); 250 ± 38 ml/week in series [2] (OVX, PA1000); 200 ± 32 ml/week in series [2] (Sham, PA250); 155 ± 35 ml/week in series [2] (Sham, PA500); 260 ± 45 ml/week in series [2] (Sham, PA1000). Also, the mice survival rate in series [2] (female, C57BL/6, mouse, in vivo, po, 6 weeks) was determined as 100%. Further, the side effects entry in series [2] (oral PA 6 weeks) was “no evidence of side effects”. For the same molecule, the “weight and water consumption vs vehicle-treated controls” value in series [2] (oral PA 6 weeks) is “no difference”. For the same molecule, the “mineralisation (alizarin red staining)” value in series [3] is “higher levels of mineralisation”. The “bone relative to tissue volume (BV/TV)” value in series [4] was “significant and dose-dependent increase”. Further, the “numbers of trabeculae (Tb.N)” value in series [4] is “increased”. Besides, the “thickness of trabeculae (Tb.Th)” value in series [4] is listed as “increased”.
